For data set [1], the target named is T1, GAL4 DBD-CfEcR(DEF)/VP16AD-MmRXRE (Choristoneura fumiferana, UniProt O77240).
T1 sequence (O77240 1-513): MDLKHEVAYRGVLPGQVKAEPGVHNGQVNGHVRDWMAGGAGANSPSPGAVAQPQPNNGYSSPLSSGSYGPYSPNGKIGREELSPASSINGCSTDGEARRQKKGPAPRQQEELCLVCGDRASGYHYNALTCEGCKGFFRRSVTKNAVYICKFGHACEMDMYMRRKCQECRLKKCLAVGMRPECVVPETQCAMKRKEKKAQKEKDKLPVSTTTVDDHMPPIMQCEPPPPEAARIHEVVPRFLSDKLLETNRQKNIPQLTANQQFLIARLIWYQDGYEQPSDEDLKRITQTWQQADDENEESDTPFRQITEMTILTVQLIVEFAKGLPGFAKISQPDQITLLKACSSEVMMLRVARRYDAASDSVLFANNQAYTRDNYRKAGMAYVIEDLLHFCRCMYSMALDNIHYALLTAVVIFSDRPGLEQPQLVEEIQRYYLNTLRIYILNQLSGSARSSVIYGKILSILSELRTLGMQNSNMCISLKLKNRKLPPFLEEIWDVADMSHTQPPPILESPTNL
Put plainly: cell-based. The settings on record: for fold induction at 33 µM: CHO, read-out: Fold Induction Average, 13B3 Assay (33 μM); for 13B3 Rel Max FI: maximum fold induction at any concentration relative to that of GS-E ligand. The gist of the method:
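Stable CHO clone 13B3 expressing GAL4 DBD-CfEcR(DEF) and VP16AD-mouse RXR(DE) with GAL4 RE-luciferase reporter. Ligands tested at 8 concentrations, 33–0.01 μM; luciferase read 48 h after treatment. Fold induction versus DMSO; BC50 from three-parameter logistic fit.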

Data set [2] has as its target T2, GAL4 DBD (1-147)-CfEcR(DEF)/VP16AD-βRXREF-LmUSPEF (Choristoneura fumiferana, UniProt O77240).
T2 sequence (O77240 191-513): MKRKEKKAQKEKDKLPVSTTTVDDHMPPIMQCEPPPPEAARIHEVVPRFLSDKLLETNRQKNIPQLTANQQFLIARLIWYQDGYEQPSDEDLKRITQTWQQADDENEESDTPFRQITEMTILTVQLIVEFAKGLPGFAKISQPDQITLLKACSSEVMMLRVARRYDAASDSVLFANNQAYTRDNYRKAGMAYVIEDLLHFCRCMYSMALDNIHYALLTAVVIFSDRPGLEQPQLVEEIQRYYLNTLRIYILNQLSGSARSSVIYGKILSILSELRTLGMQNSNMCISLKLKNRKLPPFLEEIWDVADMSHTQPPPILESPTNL
T2 sequence (P28702 296-455 partner limits assumed): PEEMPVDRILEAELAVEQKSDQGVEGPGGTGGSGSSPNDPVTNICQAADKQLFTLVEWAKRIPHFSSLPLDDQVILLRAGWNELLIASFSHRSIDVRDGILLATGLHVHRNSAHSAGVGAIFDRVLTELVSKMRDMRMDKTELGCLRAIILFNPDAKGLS
Put plainly: 27-63 assay: luciferase reporter gene expression in stable CHO cell clone 27-63. Particulars: for 27-63 Rel Max FI: maximum fold induction at any concentration relative to that of GS-E ligand; for CC50: read-out: 27-63 LC50, average, dose response, three-parameter logistic model; for Fold Induction Average, 27-63 Assay (33 μM): single dose 33 μM, RLU ligand treated / RLU DMSO treated cells. In short, it runs like this:
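CHO clone stably expressing GAL4 DBD-CfEcR(DEF) and VP16AD-HsRXRβ/LmUSP EF chimera plus a 5XGAL4RE-luciferase reporter; ligands given at 8 concentrations (33 μM to 0.01 μM), luminescence read 48 h after treatment. Fold induction versus DMSO cells; BC50 from three-parameter logistic fit.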
(In a reporter assay the amount or activity of a reporter protein is the signal.)

SMILES strings stand for the structures. Where two headings read alike, the source gives them in different places.

In general, EC50 refers to the concentration at which the effect is half-maximal. `CCC(CC)(NC(=O)c1cccc(OC)c1C)C(=O)c1cccc(C)c1` [Example 48]: in data set [1], the 50% effective concentration (EC50) is not below 33 µM, the fold induction at 33 µM was 12 and the “13B3 Rel Max FI” value was 0.00. In data set [2], the “27-63 Rel Max FI” value is reported as 0.11 and the CC50 is more than 33 µM.
For `COc1cccc(C(=O)NC2(C(=O)c3ccc(C)cc3)CCCCC2)c1C` [Example 15] the same measures were 4.11 µM, 371, 0.09, 0.87 and 6.18 µM.
With `CCNC(=O)N1CCC(NC(=O)c2cccc(OC)c2C)(C(=O)c2cc(C)cc(C)c2)CC1` [Example 157], the “Fold Induction Average, 27-63 Assay (33 μM)” value in data set [2] came out at 1.
Consider `COc1cccc(C(=O)NC2(C(=O)c3cc(F)c(F)c(OC)c3)CCCCC2)c1C` [Example 68], for which, in data set [1], the EC50 worked out at 8.79 µM, the fold induction at 33 µM came to 819 and the “13B3 Rel Max FI” value was 1.00. In data set [2], the “27-63 Rel Max FI” value is given as 0.98 and the CC50 worked out at 3.7 µM.
In the case of `COc1cccc(C(=O)NC2(C(=O)c3ccccc3)CCCC2)c1` [Example 141], in data set [2], the “27-63 Rel Max FI” value is recorded as 0.00 and the CC50 is more than 33 µM.
Take `COC(=O)CN1CCCC(NC(=O)c2cccc(OC)c2C)(C(=O)c2cc(C)cc(C)c2)C1` (racemic) [Example 156]: in data set [2], the “27-63 Rel Max FI” value is recorded as 0.00; the CC50 is more than 33 µM; the “Fold Induction Average, 27-63 Assay (33 μM)” value stood at 3.
In the case of `COc1ccccc1C(=O)C1(NC(=O)c2cccc(OC)c2C)CCCCCC1` [Example 70], in data set [2], the “27-63 Rel Max FI” value was 0.66 and the CC50 is 3.36 µM.
As for `COc1cccc(C(=O)NC2(C(=O)c3ccc(F)cc3)CCCCC2)c1C` [Example 60], in data set [1], the EC50 was more than 33 µM, the fold induction at 33 µM is 578 and the “13B3 Rel Max FI” value was 0.01. Besides, in data set [2], the “27-63 Rel Max FI” value came out at 0.35 and the CC50 was approximately 9 µM.
For `CCc1c(OC)cccc1C(=O)NC1(C(=O)c2ccccc2)CCCC1` [Example 21] the same measures were more than 33 µM, 2, 0.00, 0.09 and more than 33 µM.
The corresponding values for `CCc1c(C(=O)NC2(C(=O)c3ccccc3)CCCC2)ccc2c1OCCO2` [Example 22] are more than 33 µM, 4, 0.00, 0.60 and 10.8 µM.
Turning to `COc1cccc(C(=O)NC2(C(=O)c3cccc(C)c3)CCOCC2)c1C` [Example 25], in data set [1], the EC50 is more than 33 µM, the fold induction at 33 µM was 117 and the “13B3 Rel Max FI” value is listed as 0.00. For the same molecule, in data set [2], the “27-63 Rel Max FI” value was 0.00 and the CC50 is more than 33 µM.
As for `COc1cc(C(=O)C2(NC(=O)c3cccc(OC)c3C)CCCCC2)cc(OC)c1C` [Example 66], in data set [1], the EC50 came to 23.8 µM, the fold induction at 33 µM turned out to be 357 and the “13B3 Rel Max FI” value is 0.50. In addition, in data set [2], the “27-63 Rel Max FI” value was determined as 0.76 and the CC50 amounted to 14.5 µM.
Turning to `COc1cccc(C(=O)NC(C)(C)C(=O)c2cc(C)cc(C)c2)c1C` [Example 75], in data set [2], the “27-63 Rel Max FI” value came out at 0.29 and the CC50 was 42 µM.
For `COc1ccc(C(=O)C2(NC(=O)c3cccc(OC)c3C)CCCCC2)c(OC)n1` [Example 64], in data set [1], the half-maximal effective concentration (EC50) was 3.79 µM, the fold induction at 33 µM stood at 599 and the “13B3 Rel Max FI” value came out at 0.81. In data set [2], the “27-63 Rel Max FI” value stood at 0.82 and the CC50 came to 3.12 µM.
`COc1cc(C(=O)C2(NC(=O)c3cccc(OC)c3C)CCCC2)cc(OC)c1C` [Example 65]: in data set [1], the “13B3 Rel Max FI” value was 0.03. For the same molecule, the half-maximal effective concentration (EC50) in data set [1] (read-out: 13B3 EC50, average, dose response, three-parameter logistic model) is approximately 20 µM. For the same molecule, in data set [1] (single dose 33 μM, RLU ligand treated / RLU DMSO treated cells), the “Fold Induction Average, 13B3 Assay (33 μM)” value is 19. Besides, in data set [2], the “27-63 Rel Max FI” value is listed as 0.28 and the CC50 was more than 20 µM.
For `COc1cccc(C(=O)NC2(C(=O)c3cc(C)cc(C)c3)CCN(C(C)=O)CC2)c1C` [Example 149], in data set [2] (CHO, read-out: Fold Induction Average, 27-63 Assay (33 μM)), the fold induction at 33 µM was 1.
Regarding `COc1cccc(C(=O)NC(C)(C(=O)c2ccc(C)cc2)C(C)C)c1C` (centres unmarked) [Example 33], in data set [1], the EC50 was more than 33 µM, the fold induction at 33 µM stood at 78 and the “13B3 Rel Max FI” value was 0.00. In data set [2], the “27-63 Rel Max FI” value turned out to be 0.00 and the CC50 was more than 33 µM.
Take `COc1cccc(C(=O)NC2(C(=O)c3cc(C)cc(C)c3)CC2)c1C` [Example 13]: in data set [1], the EC50 was more than 33 µM, the fold induction at 33 µM came out at 3 and the “13B3 Rel Max FI” value amounted to 0.00. Besides, in data set [2], the “27-63 Rel Max FI” value came to 0.09 and the CC50 is more than 33 µM.
As for `COc1cccc(C(=O)NC2(C(=O)c3cc(C)cc(C)c3)CCC3(CC2)OCCO3)c1C` [Example 29], in data set [1], the EC50 was more than 33 µM, the fold induction at 33 µM stood at 5 and the “13B3 Rel Max FI” value came out at 0.00. Also, in data set [2], the “27-63 Rel Max FI” value is 0.00 and the CC50 was more than 33 µM.
Consider `COc1cccc(C(=O)NC2(C(=O)c3cc(C)cc(C)c3)CCCCC2)c1C` [Example 11], for which, in data set [1], the EC50 was determined as 1.8 µM, the fold induction at 33 µM was found to be 94700 and the “13B3 Rel Max FI” value is 1.15. For the same molecule, in data set [2], the “27-63 Rel Max FI” value worked out at 0.97 and the CC50 came out at 1.43 µM.
For `COc1cccc(C(=O)NC2(C(=O)c3ccccc3C)CCCCC2)c1C` [Example 44], in data set [1], the EC50 was more than 33 µM, the fold induction at 33 µM was 36 and the “13B3 Rel Max FI” value was determined as 0.00. Besides, in data set [2], the “27-63 Rel Max FI” value was found to be 0.07 and the CC50 was more than 33 µM.
Regarding `COc1cccc(C(=O)NC2(C(=O)c3cc(C)cc(C)c3)CCCCCC2)c1C` [Example 71], in data set [2], the “27-63 Rel Max FI” value is recorded as 0.88 and the CC50 was found to be 2.97 µM.
With `CCOC(=O)C(=O)N1CCCC(NC(=O)c2cccc(OC)c2C)(C(=O)c2cc(C)cc(C)c2)C1` (racemic) [Example 154], the “Fold Induction Average, 27-63 Assay (33 μM)” value in data set [2] worked out at 2.
Take `CCC(CC)(NC(=O)c1cccc(OC)c1C)C(=O)c1ccc(F)cc1` [Example 38]: in data set [1], the EC50 is more than 33 µM, the fold induction at 33 µM turned out to be 18 and the “13B3 Rel Max FI” value was determined as 0.00. For the same molecule, in data set [2], the “27-63 Rel Max FI” value is 0.00 and the CC50 is more than 33 µM.
As for `CCC(CC)(NC(=O)c1cccc(OC)c1C)C(=O)c1ccccc1` [Example 78], in data set [2], the “27-63 Rel Max FI” value worked out at 0.41 and the CC50 is 6.54 µM.
For the molecule `CCC(CC)(NC(=O)c1cccc(OC)c1C)C(=O)c1ccc(C)cc1` [Example 77], in data set [2], the “27-63 Rel Max FI” value was found to be 0.00 and the CC50 is more than 33 µM.
The corresponding values for `CCc1c(OC)cccc1C(=O)NC1(C(=O)c2cc(C)cc(C)c2)CCCC1` [Example 144] are 0.93 and 1.52 µM.
As to `COc1ccccc1C(=O)C(C)(NC(=O)c1cccc(OC)c1C)c1ccc(F)cc1` (centres unmarked) [Example 72], the “Fold Induction Average, 27-63 Assay (33 μM)” value in data set [2] worked out at 1.
Consider `COc1cccc(C(=O)NC(C)(C)C(=O)c2ccccc2)c1C` [Example 76], for which, in data set [2], the “27-63 Rel Max FI” value worked out at 0.00 and the CC50 was more than 33 µM.
On to `COc1cccc(C(=O)NC2(C(=O)c3ccc(C)cc3)CCCC2)c1C` [Example 79], for which, in data set [2], the “27-63 Rel Max FI” value is on record as 0.32 and the CC50 came to 4.38 µM.
The corresponding values for `O=C(NC1(C(=O)c2ccccc2)CCCC1)c1ccccc1` [Example 139] are 0.00 and more than 33 µM.
Regarding `COc1ccccc1C(=O)C(C)(C)NC(=O)c1cccc(OC)c1C` [Example 74], in data set [2], the “Fold Induction Average, 27-63 Assay (33 μM)” value is reported as 9.
Consider `CCc1c(OC)cccc1C(=O)NC1(C(=O)c2cc(C)cc(C)c2)CCCCC1` [Example 143], for which, in data set [2], the “27-63 Rel Max FI” value came to 0.91 and the CC50 turned out to be 1.5 µM.

The values above are taken from US8129355B2, “Ketone ligands for modulating the expression of exogenous genes via an ecdysone receptor complex” (priority 2002, dated 2012).
